Source: patent US10100010B1, “4-methoxy pyrrole derivatives or salts thereof and pharmaceutical composition comprising the same” (Daewoong Pharmaceutical Co., Ltd., priority 2015, dated 2018)
Where a name gives a salt, the structure may show the parent alone.

Experiments:
[1] = tested on: basal gastric acid secretion in pylorus-ligated rats; assay: Inhibitory effects on basal gastric acid secretion in pylorus-ligated rats (Shay's rat model); format: in vivo, Sprague Dawley (SD) rats; details: 2.0 mg/kg into the duodenum, 5 hours after ligation
Protocol: Inhibitory effects of the compounds prepared in Examples 2, 8 and 22 on basal gastric acid secretion were measured according to Shay's rat model (Shay, H., et al., 1945, gastroenterology, 5, p 43-61). Male Sprague Dawley (SD) rats (body weight 180-220 g) were divided into 4 groups (n=6-7) and fasted for 18 hours with free access to water. Under isoflurane anesthesia, the abdomens of the rats were incised and then the pylorus was ligated. Immediately after ligation, control group was administered with 2 mL/kg of 0.5% methyl cellulose (MC) aqueous solution into the duodenum, and the other groups were administered with test compounds suspended in 0.5% methyl cellulose (MC) aqueous solution at a dose of 2.0 mg/kg/2 ml. 5 hours after ligation, the test animals were sacrificed, and gastric contents were removed. The removed contents were centrifuged at 4,000×g for 10 minutes and the supernatant was separated to obtain the gastric juice. The amount and pH of the gastric juice were measured and the acidity in the gastric juice was measured by 0.1N NaOH volume (ueq/mL) required for the titration of gastric acid to pH 7.0. Total acid output was measured by multiplying the acidity of the gastric juice by the amount of the gastric juice. % inhibitory activity of test compounds were calculated according to the following equation, and the results are shown in Table 2. % inhibitory activity of test compound=[(total acid output of control group-total acid output of the group treated with test compounds)/total acid output of control group]×100 [Equation 1]

[2] = tested on: indomethacin-induced gastric damage in rats; assay: Gastric damage inhibitory activity against indomethacin-induced gastric damage in rats; format: in vivo, Sprague Dawley (SD) rats; details: 2.0 mg/kg oral, 1 hour before indomethacin 80 mg/kg
Protocol: The inhibitory activity against the gastric damage of the compounds prepared in Examples 2 and 8 was measured using indomethacin model (Chiou., Et al., 2005, gastroenterology, 128, p 63-73). Male Sprague Dawley (SD) rats (body weight 180-220 g) was divided into 5 groups (n=10) and fasted for 24 hours with free access to water. Control group was orally administered with 5 mL/kg of 0.5% methyl cellulose (MC) aqueous solution, and the other groups were orally administered with test compounds suspended in 0.5% methyl cellulose (MC) aqueous solution at a dose of 2.0 mg/kg/5 ml. For comparison, the compound of Example 134 (Comparative Example 1) and the compound of Example 165 (Comparative Example 2) in International Patent Publication No. WO 2006/036024 were orally administered at a dose of 2.0 mg/kg/5 ml by suspending 0.5% methylcellulose (MC) aqueous solution, respectively. […] The incised stomach was placed on a fixture, fixed by a fixing pin while spreading out using a forcep and then the gastric damage area was measured. % Inhibitory activity of test compounds was calculated according to the following Equation 2, and the results are shown in Table 3. % Inhibitory activity of test compound=[1−(gastric damage area % of the group treated with test compounds)/(gastric damage area % of control group)]×100 [Equation 2]

H. pylori = assay: Antimicrobial activity against H. pylori, MIC by agar dilution method; format: cell-based; details: Helicobacter pylori
[3] = strain 26695 CHGKG (HPKTCC B3412)

## CNCc1cn(S(=O)(=O)c2cccc(F)c2)c(-c2ccc(F)cc2F)c1OC.Cl [Example 8, 1-(5-(2,4-difluorophenyl)-1-((3-fluorophenyl)sulfonyl)-4-methoxy-1H-pyrrol-3-yl)-N-methylmethanamine hydrochloride]
[1]
  % inhibitory activity (total acid output): 90.5%
[2]
  % inhibitory activity (gastric damage area): 92.2%
H. pylori; strain 45 (HPKTCC B0004)
  MIC: 75 µg/mL
H. pylori; strain 51 (HPKTCC B0006)
  MIC: 75 µg/mL
H. pylori; strain 52 (HPKTCC B0007)
  MIC: 75 µg/mL
H. pylori; strain 92-33-1 (HPKTCC B0182)
  MIC: 75 µg/mL
H. pylori; strain 92-82-1 (HPKTCC B0233)
  MIC: 75 µg/mL
H. pylori; strain 92-157 (HPKTCC B0152)
  MIC: 75 µg/mL
H. pylori; strain 118 (HPKTCC B0017)
  MIC: 150 µg/mL
H. pylori; strain 126 (HPKTCC B0020)
  MIC: 150 µg/mL
H. pylori; strain 127 (HPKTCC B0021)
  MIC: 75 µg/mL
H. pylori; strain 133 (HPKTCC B0023)
  MIC: 37.5 µg/mL
H. pylori; strain 134 (HPKTCC B0024)
  MIC: 75 µg/mL
H. pylori; strain 138 (HPKTCC B0026)
  MIC: 75 µg/mL
H. pylori; strain 156 (HPKTCC B0035)
  MIC: 150 µg/mL
H. pylori; strain 159 (HPKTCC B0037)
  MIC: 150 µg/mL
H. pylori; strain 164 (HPKTCC B0040)
  MIC: 75 µg/mL
H. pylori; strain 183 (HPKTCC B0047)
  MIC: 150 µg/mL
H. pylori; strain 193 (HPKTCC B0051)
  MIC: 75 µg/mL
H. pylori; strain 198 (HPKTCC B0055)
  MIC: 75 µg/mL
H. pylori; strain 205 (HPKTCC B0058)
  MIC: 75 µg/mL
H. pylori; strain 210 (HPKTCC B0061)
  MIC: 75 µg/mL
H. pylori; strain 221 (HPKTCC B0068)
  MIC: 75 µg/mL
H. pylori; strain 228 (HPKTCC B0071)
  MIC: 75 µg/mL
H. pylori; strain 235 (HPKTCC B0074)
  MIC: 75 µg/mL
H. pylori; strain 236 (HPKTCC B0075)
  MIC: 75 µg/mL
H. pylori; strain 302 (HPKTCC B0088)
  MIC: 75 µg/mL
H. pylori; strain 26695 (HPKTCC B0100)
  MIC: 75 µg/mL
H. pylori; [3]
  MIC: 150 µg/mL
H. pylori; strain CH24 (HPKTCC B0508)
  MIC: 75 µg/mL
H. pylori; strain CH94 (HPKTCC B0582)
  MIC: 37.5 µg/mL
H. pylori; strain CH173 (HPKTCC B0494)
  MIC: 75 µg/mL
H. pylori; strain CH175 (HPKTCC B0496)
  MIC: 75 µg/mL
H. pylori; strain CH189 (HPKTCC B0498)
  MIC: 75 µg/mL
H. pylori; strain CH192 (HPKTCC B0500)
  MIC: 75 µg/mL
H. pylori; strain CH272 (HPKTCC B0516)
  MIC: 75 µg/mL
H. pylori; strain CH369 (HPKTCC B0522)
  MIC: 75 µg/mL
H. pylori; strain CH381 (HPKTCC B0524)
  MIC: 75 µg/mL
H. pylori; strain CH498 (HPKTCC B0536)
  MIC: 75 µg/mL
H. pylori; strain CH502 (HPKTCC B0537)
  MIC: 75 µg/mL
H. pylori; strain CH523 (HPKTCC B0541)
  MIC: 75 µg/mL
H. pylori; strain CH541 (HPKTCC B0548)
  MIC: 75 µg/mL
H. pylori; strain CH588 (HPKTCC B0556)
  MIC: 75 µg/mL
H. pylori; strain CH609 (HPKTCC B0558)
  MIC: 75 µg/mL
H. pylori; strain CH612 (HPKTCC B0559)
  MIC: 75 µg/mL
H. pylori; strain CH631 (HPKTCC B0560)
  MIC: 75 µg/mL
H. pylori; strain CH635 (HPKTCC B0562)
  MIC: 75 µg/mL
H. pylori; strain CH674 (HPKTCC B0564)
  MIC: 75 µg/mL
H. pylori; strain CH1056 (HPKTCC B0487)
  MIC: 75 µg/mL
H. pylori; strain CJH7 (HPKTCC B0606)
  MIC: 75 µg/mL
H. pylori; strain CJH8 (HPKTCC B0608)
  MIC: 37.5 µg/mL
H. pylori; strain CJH9 (HPKTCC B0610)
  MIC: 75 µg/mL
H. pylori; strain CJH10 (HPKTCC B0587)
  MIC: 75 µg/mL
H. pylori; strain CJH13 (HPKTCC B0589)
  MIC: 75 µg/mL
H. pylori; strain CJH31 (HPKTCC B0594)
  MIC: 75 µg/mL
H. pylori; strain CJH33 (HPKTCC B0595)
  MIC: 75 µg/mL
H. pylori; strain CJH43 (HPKTCC B0596)
  MIC: 75 µg/mL
H. pylori; strain CJH50 (HPKTCC B0599)
  MIC: 75 µg/mL
H. pylori; strain G88001 (HPKTCC B0722)
  MIC: 75 µg/mL
H. pylori; strain G88007 (HPKTCC B0725)
  MIC: 75 µg/mL
H. pylori; strain J99 (HPKTCC B0748)
  MIC: 75 µg/mL
H. pylori; strain SS1-P-4′ (HPKTCC B3392)
  MIC: 37.5 µg/mL

## CNCc1cn(S(=O)(=O)c2cccc(C(F)(F)F)c2)c(-c2ccccc2F)c1OC [Example 2, hydrochloride]
[1]
  % inhibitory activity (total acid output): 93.5%
[2]
  % inhibitory activity (gastric damage area): 91.8%

## CNCc1cn(S(=O)(=O)c2cccc(F)c2)c(-c2c(F)cc(F)cc2F)c1OC.Cl [Example 22, 1-(1-((3-fluorophenyl)sulfonyl)-4-methoxy-5-(2,4,6-trifluorophenyl)-1H-pyrrol-3-yl)-N-methylmethanamine hydrochloride]
[1]
  % inhibitory activity (total acid output): 88.1%
H. pylori; strain 45 (HPKTCC B0004)
  MIC: 75 µg/mL
H. pylori; strain 51 (HPKTCC B0006)
  MIC: 75 µg/mL
H. pylori; strain 52 (HPKTCC B0007)
  MIC: 75 µg/mL
H. pylori; strain 92-33-1 (HPKTCC B0182)
  MIC: 75 µg/mL
H. pylori; strain 92-82-1 (HPKTCC B0233)
  MIC: 75 µg/mL
H. pylori; strain 92-157 (HPKTCC B0152)
  MIC: 75 µg/mL
H. pylori; strain 118 (HPKTCC B0017)
  MIC: 75 µg/mL
H. pylori; strain 126 (HPKTCC B0020)
  MIC: 75 µg/mL
H. pylori; strain 127 (HPKTCC B0021)
  MIC: 75 µg/mL
H. pylori; strain 133 (HPKTCC B0023)
  MIC: 75 µg/mL
H. pylori; strain 134 (HPKTCC B0024)
  MIC: 75 µg/mL
H. pylori; strain 138 (HPKTCC B0026)
  MIC: 75 µg/mL
H. pylori; strain 156 (HPKTCC B0035)
  MIC: 75 µg/mL
H. pylori; strain 159 (HPKTCC B0037)
  MIC: 75 µg/mL
H. pylori; strain 164 (HPKTCC B0040)
  MIC: 75 µg/mL
H. pylori; strain 183 (HPKTCC B0047)
  MIC: 75 µg/mL
H. pylori; strain 193 (HPKTCC B0051)
  MIC: 75 µg/mL
H. pylori; strain 198 (HPKTCC B0055)
  MIC: 75 µg/mL
H. pylori; strain 205 (HPKTCC B0058)
  MIC: 75 µg/mL
H. pylori; strain 210 (HPKTCC B0061)
  MIC: 75 µg/mL
H. pylori; strain 221 (HPKTCC B0068)
  MIC: 75 µg/mL
H. pylori; strain 228 (HPKTCC B0071)
  MIC: 75 µg/mL
H. pylori; strain 235 (HPKTCC B0074)
  MIC: 75 µg/mL
H. pylori; strain 236 (HPKTCC B0075)
  MIC: 75 µg/mL
H. pylori; strain 302 (HPKTCC B0088)
  MIC: 75 µg/mL
H. pylori; strain 26695 (HPKTCC B0100)
  MIC: 75 µg/mL
H. pylori; [3]
  MIC: 150 µg/mL
H. pylori; strain CH24 (HPKTCC B0508)
  MIC: 75 µg/mL
H. pylori; strain CH94 (HPKTCC B0582)
  MIC: 75 µg/mL
H. pylori; strain CH173 (HPKTCC B0494)
  MIC: 75 µg/mL
H. pylori; strain CH175 (HPKTCC B0496)
  MIC: 75 µg/mL
H. pylori; strain CH189 (HPKTCC B0498)
  MIC: 75 µg/mL
H. pylori; strain CH192 (HPKTCC B0500)
  MIC: 75 µg/mL
H. pylori; strain CH272 (HPKTCC B0516)
  MIC: 75 µg/mL
H. pylori; strain CH369 (HPKTCC B0522)
  MIC: 75 µg/mL
H. pylori; strain CH381 (HPKTCC B0524)
  MIC: 75 µg/mL
H. pylori; strain CH498 (HPKTCC B0536)
  MIC: 75 µg/mL
H. pylori; strain CH502 (HPKTCC B0537)
  MIC: 75 µg/mL
H. pylori; strain CH523 (HPKTCC B0541)
  MIC: 75 µg/mL
H. pylori; strain CH541 (HPKTCC B0548)
  MIC: 75 µg/mL
H. pylori; strain CH588 (HPKTCC B0556)
  MIC: 75 µg/mL
H. pylori; strain CH609 (HPKTCC B0558)
  MIC: 75 µg/mL
H. pylori; strain CH612 (HPKTCC B0559)
  MIC: 75 µg/mL
H. pylori; strain CH631 (HPKTCC B0560)
  MIC: 75 µg/mL
H. pylori; strain CH635 (HPKTCC B0562)
  MIC: 75 µg/mL
H. pylori; strain CH674 (HPKTCC B0564)
  MIC: 75 µg/mL
H. pylori; strain CH1056 (HPKTCC B0487)
  MIC: 75 µg/mL
H. pylori; strain CJH7 (HPKTCC B0606)
  MIC: 75 µg/mL
H. pylori; strain CJH8 (HPKTCC B0608)
  MIC: 75 µg/mL
H. pylori; strain CJH9 (HPKTCC B0610)
  MIC: 75 µg/mL
H. pylori; strain CJH10 (HPKTCC B0587)
  MIC: 75 µg/mL
H. pylori; strain CJH13 (HPKTCC B0589)
  MIC: 75 µg/mL
H. pylori; strain CJH31 (HPKTCC B0594)
  MIC: 75 µg/mL
H. pylori; strain CJH33 (HPKTCC B0595)
  MIC: 75 µg/mL
H. pylori; strain CJH43 (HPKTCC B0596)
  MIC: 75 µg/mL
H. pylori; strain CJH50 (HPKTCC B0599)
  MIC: 75 µg/mL
H. pylori; strain G88001 (HPKTCC B0722)
  MIC: 75 µg/mL
H. pylori; strain G88007 (HPKTCC B0725)
  MIC: 75 µg/mL
H. pylori; strain J99 (HPKTCC B0748)
  MIC: 75 µg/mL
H. pylori; strain SS1-P-4′ (HPKTCC B3392)
  MIC: 75 µg/mL
